Here are results for one substance from patent publication US6686355B2, “Biphenyl sulfonamides useful as matrix metalloproteinase inhibitors” (Warner-Lambert Company, priority 2001, dated 2004).

Common to all, as to type: biochemical
For test [1], the target named is T1, MMP-12CD (Homo sapiens, UniProt P39900).
T1 construct: MMP-12CD
The experiment in a line: Thiopeptolide hydrolysis assay, MMP-12CD. Particulars: thiopeptolide substrate, HEPES pH 7.0, 22° C. The source says: (§1) The assays measure the amount by which a test compound reduces the hydrolysis of a thiopeptolide substrate catalyzed by a matrix metalloproteinase enzyme. Such assays are described in detail by Ye et al., in Biochemistry, 1992;31(45):11231-11235, which is incorporated herein by reference.
(§2) Thiopeptolide substrates show virtually no decomposition or hydrolysis at or below neutral pH in the absence of a matrix metalloproteinase enzyme. A typical thiopeptolide substrate commonly utilized for assays is Ac-Pro-Leu-Gly-thioester-Leu-Leu-Gly-OEt. A 100 μL assay mixture will contain 50 mM of N-2-hydroxyethylpiperazine-N′-2-ethanesulfonic acid buffer (“HEPES”) at pH 7.0, 10 mM CaCl2, 100 μM thiopeptolide substrate, and 1 mM 5,5″-dithio-bis-(2-nitro-benzoic acid) (DTNB). The thiopeptolide substrate concentration may be varied from, for example, 10 to 800 μM to obtain Km and Kcat values. The change in absorbance at 405 nm is monitored on a Thermo Max microplate reader (Molecular Devices, Menlo Park, Calif.) at room temperature (22° C.). The calculation of the amount of hydrolysis of the thiopeptolide substrate is based on E412=13600 M^−1 cm^−1 for the DTNB-derived product 3-carboxy4-nitrothiophenoxide. Assays are carried out with and without matrix metalloproteinase inhibitor compounds, and the amount of hydrolysis is compared for a determination of inhibitory activity of the test compounds.
(§3) Several representative compounds have been evaluated for their ability to inhibit various matrix metalloproteinase enzymes. In Table I, MMP-1FL refers to full length interstitial collagenase; MMP-2FL refers to full length Gelatinase A; MMP-3CD refers to the catalytic domain of stromelysin-1; MMP-7FL refers to full length matrilysin; MMP-9FL refers to full length Gelatinase B; MMP-13CD refers to the catalytic domain of collagenase 3; and MMP-14CD refers to the catalytic domain of MMP-14. Test compounds were evaluated at various concentrations in order to determine their respective IC50 values, the micromolar concentration of compound required to cause a 50% inhibition of the catalytic activity of the respective enzyme.

Test [2] addresses MMP-14CD (catalytic domain of MMP-14) (Homo sapiens, UniProt P50281). The experiment in a line: Thiopeptolide hydrolysis assay, MMP-14CD. The conditions noted are these: thiopeptolide substrate, HEPES pH 7.0, 22° C.
Description: as §1, §2, §3

Test [3] has as its target MMP-9FL (full length Gelatinase B) (Homo sapiens, UniProt P14780). Put plainly: Thiopeptolide hydrolysis assay, MMP-9FL. Particulars: thiopeptolide substrate, HEPES pH 7.0, 22° C.
Test [4] has as its target T2, MMP-7FL (full length matrilysin) (Homo sapiens, UniProt P09237).
T2 sequence (P09237 95-267): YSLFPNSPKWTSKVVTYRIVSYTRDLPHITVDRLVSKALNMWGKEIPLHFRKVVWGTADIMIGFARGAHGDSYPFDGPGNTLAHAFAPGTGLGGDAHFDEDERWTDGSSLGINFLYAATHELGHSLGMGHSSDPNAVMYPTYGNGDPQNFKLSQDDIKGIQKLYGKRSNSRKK
The experiment in a line: Thiopeptolide hydrolysis assay, MMP-7FL. Particulars: thiopeptolide substrate, HEPES pH 7.0, 22° C.
Description: as §1, §2, §3

Test [5] concerns the target MMP-3CD (catalytic domain of stromelysin-1) (Homo sapiens, UniProt P08254). Put plainly: Thiopeptolide hydrolysis assay, MMP-3CD. The conditions noted are these: thiopeptolide substrate, MES pH 6.0.
Test [6] has as its target T3, MMP-2FL (full length Gelatinase A) (Homo sapiens, UniProt P08253).
T3 sequence (P08253 110-660): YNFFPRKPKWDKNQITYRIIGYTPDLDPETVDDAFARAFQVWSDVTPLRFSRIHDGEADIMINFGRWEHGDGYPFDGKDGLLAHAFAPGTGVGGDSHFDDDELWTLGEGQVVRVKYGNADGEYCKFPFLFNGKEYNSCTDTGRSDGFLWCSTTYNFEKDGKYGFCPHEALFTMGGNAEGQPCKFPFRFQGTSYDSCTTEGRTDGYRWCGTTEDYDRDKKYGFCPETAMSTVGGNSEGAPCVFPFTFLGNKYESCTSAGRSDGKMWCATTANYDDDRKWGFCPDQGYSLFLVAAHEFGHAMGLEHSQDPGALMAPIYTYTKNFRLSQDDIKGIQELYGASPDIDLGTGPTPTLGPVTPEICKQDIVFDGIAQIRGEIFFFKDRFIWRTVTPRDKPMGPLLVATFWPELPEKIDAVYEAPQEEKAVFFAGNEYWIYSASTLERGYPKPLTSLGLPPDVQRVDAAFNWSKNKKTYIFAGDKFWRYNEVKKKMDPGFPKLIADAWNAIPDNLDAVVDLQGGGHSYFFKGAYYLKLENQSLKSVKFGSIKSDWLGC
The experiment in a line: Thiopeptolide hydrolysis assay, MMP-2FL. The conditions noted are these: thiopeptolide substrate, HEPES pH 7.0, 22° C.

In test [7] the target is T4, MMP-1FL (full length interstitial collagenase) (Homo sapiens, UniProt P03956).
T4 sequence (P03956 100-469): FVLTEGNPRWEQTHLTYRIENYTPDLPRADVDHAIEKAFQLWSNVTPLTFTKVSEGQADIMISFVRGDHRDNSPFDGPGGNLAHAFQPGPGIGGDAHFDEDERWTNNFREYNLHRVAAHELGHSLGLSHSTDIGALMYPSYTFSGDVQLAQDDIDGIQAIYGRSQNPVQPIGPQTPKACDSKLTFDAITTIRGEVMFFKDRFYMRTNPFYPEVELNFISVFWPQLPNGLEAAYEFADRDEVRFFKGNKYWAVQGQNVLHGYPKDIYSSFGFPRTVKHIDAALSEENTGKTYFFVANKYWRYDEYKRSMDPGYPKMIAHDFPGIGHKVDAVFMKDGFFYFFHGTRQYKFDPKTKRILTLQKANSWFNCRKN
The experiment in a line: Thiopeptolide hydrolysis assay, MMP-1FL. The conditions noted are these: thiopeptolide substrate, HEPES pH 7.0, 22° C.
Description: as §1, §2, §3

Test [8] has as its target MMP-13CD (catalytic domain of collagenase 3) (Homo sapiens, UniProt P45452). The experiment in a line: Thiopeptolide hydrolysis assay, MMP-13CD. Particulars: thiopeptolide substrate, HEPES pH 7.0, 22° C.

T1 sequence (P39900 106-263 limits assumed): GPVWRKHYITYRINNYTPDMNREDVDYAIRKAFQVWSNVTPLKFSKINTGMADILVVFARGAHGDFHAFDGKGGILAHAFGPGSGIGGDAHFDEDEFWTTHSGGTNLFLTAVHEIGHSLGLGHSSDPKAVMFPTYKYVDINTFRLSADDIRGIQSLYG
Chain of MMP-3CD (catalytic domain of stromelysin-1) (P08254 100-272 limits assumed): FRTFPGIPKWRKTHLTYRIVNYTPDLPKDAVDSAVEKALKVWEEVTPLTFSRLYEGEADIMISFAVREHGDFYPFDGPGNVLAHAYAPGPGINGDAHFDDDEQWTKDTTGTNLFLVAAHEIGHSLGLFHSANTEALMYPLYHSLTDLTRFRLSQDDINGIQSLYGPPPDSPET
Chain of MMP-9FL (full length Gelatinase B) (P14780 94-707, species assumed): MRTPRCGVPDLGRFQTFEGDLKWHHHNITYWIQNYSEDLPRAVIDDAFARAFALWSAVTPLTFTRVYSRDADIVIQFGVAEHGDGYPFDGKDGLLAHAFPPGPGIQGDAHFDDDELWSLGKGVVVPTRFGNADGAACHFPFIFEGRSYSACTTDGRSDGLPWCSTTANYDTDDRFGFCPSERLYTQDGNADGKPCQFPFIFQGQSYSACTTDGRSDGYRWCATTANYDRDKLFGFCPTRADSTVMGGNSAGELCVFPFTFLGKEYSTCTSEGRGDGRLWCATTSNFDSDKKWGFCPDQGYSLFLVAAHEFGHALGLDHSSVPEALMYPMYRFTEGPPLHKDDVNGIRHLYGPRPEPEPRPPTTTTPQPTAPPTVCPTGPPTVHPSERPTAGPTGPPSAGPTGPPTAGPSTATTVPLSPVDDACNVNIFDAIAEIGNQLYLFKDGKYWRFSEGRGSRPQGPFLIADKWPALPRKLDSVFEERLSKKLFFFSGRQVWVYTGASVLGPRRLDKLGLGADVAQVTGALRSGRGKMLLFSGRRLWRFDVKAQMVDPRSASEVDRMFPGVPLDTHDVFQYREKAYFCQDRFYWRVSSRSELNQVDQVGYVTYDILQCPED

Consider “(S)-2,2-Dimethyl-4-(4-methylsulfanyl-biphenyl-4-sulfonyl)-thiomorpholine-3-carboxylic acid [Example 37]”, for which the half-maximal inhibitory concentration (IC50) (as a rule, the concentration that gives 50% inhibition) in test [1] worked out at 0.001 µM; in test [2], 0.036 µM; in test [3], 0.069 µM; in test [4] it was 6.87 µM; in test [5] it was 0.00475 µM; in test [6], 0.0025 µM. The IC50 in test [7] came out at 2.03 µM; in test [8], 0.00305 µM.
